Measurements: US9920069B2, “Compounds for treatment of fluoroquinolone-resistant bacteria” (The Board of Trustees of the University of Illinois, priority 2014, dated 2018)
Converted amounts (≈) assume the structure as drawn. Like-named read-outs stand apart in the source and are kept apart here.

What was measured:
in vivo = conditions: female, C57BL/6, mouse, po
Protocol: As a prelude to exploring in vivo efficacy, the toxicity and pharmacokinetic profile of DNM and key derivatives was evaluated.
The animal studies (PK, in vivo toxicity and in vivo efficacy) were carried out in strict accordance with the recommendations in the Guide for the Care and Use of Laboratory Animals of the National Institutes of Health. […] In these studies, 10-12 week old female C57BL/6 mice purchased from Charles River were used. DNM, DNM-2, and DNM-3 were formulated as slurries at 8.3 mg mL^−1 in 25% Cremophor RH40/water (v/v). Before beginning the pharmacokinetic assessment, mice were first tested for their ability to tolerate the DNM, DNM-2, and DNM-3 at 50 mg kg^−1 (p.o.). […] . At specified time points, mice were sacrificed and blood was collected, centrifuged, and the serum was frozen at −80° C. until analysis. The proteins in a 50 μL aliquot of serum were precipitated by the addition of 50 μL of acetonitrile and the sample was centrifuged to remove the proteins. Serum concentrations of DNM, DNM-2, and DNM-3 were determined by HPLC. PK parameters were determined using GraphPad Prism Version 5.00 for Windows.

physchem = conditions: pH 7.4 PBS; three replicates ± SEM
Protocol: Enough PBS was added to make a 1 mg/mL solution. Compounds were then assessed by LC-MS and compared to a calibration curve to determine the solubility. […] Data shown is from three independent replicates±SEM. […] Between DMSO additions, the vial was vortexed and sonicated.
The compound was vortexed for ˜30 seconds before being placed into a bath sonicator (Cole Parmer, ultrasonic cleaner) for 1 h. […] The tubes were vortexed again for 30 s before being centrifuged at maximum speed (13,000×g) for 10 minutes. The supernatant was then filtered through a 0.22 μm syringe filter (Millipore Millex MP). […] Three independent replicates of each compound were performed. A calibration curve for each compound was generated from 1-400 μM by dissolving the compound in DMSO and making dilutions of the stock in DMSO. […] The concentration of the samples was calculated based on the calibration curves.

[1] = system: VRE clinical isolate S206; test: organism not typed; type: cell-based, E. faecalis
Protocol: QRDR mutations were determined as described in the text using primers (primer sequences can be found in Table 7).
Susceptibility testing was performed in triplicate using the microdilution broth method as outlined by the Clinical and Laboratory Standards Institute CLSI^52. MH broth was used.

Herring Sperm DNA = type: binding; conditions: 30 min, pH 7.5
Protocol: FIG. 12. In vitro toxicity. A) Hemolysis assay. Human red blood cells were co-incubated with compound. After incubation for 2 h at 37° C., the supernatant was analyzed for hemolysis. Each compound was tested either at 160 μg mL^−1 or at the highest concentration which its solubility allowed. Concentrations (μg mL^−1) are indicated in parenthesis. The negative control is DMSO and the positive control is water. Data shown is from three independent replicates±SEM. B) Ethidium bromide (EtBr) intercalation assay. Compounds were incubated with Herring Sperm DNA, ethidium bromide, and compound of interest for 30 minutes. The solutions were then analyzed for ethidium bromide fluorescence. Any decrease in percentage fluorescence is indicative of compound intercalation. Doxorubicin (DOX) was used as a positive control.
These assays were performed as previously described (Bair et al. J. Am. Chem. Soc. 132, 5469-5478, (2010)). The ability of DNM-2 to intercalate into DNA was measured by an ethidium bromide displacement assay. Herring Sperm DNA (34 μg/mL final) was premixed with buffer containing ethidium bromide (50 mM Tris base, 100 mM NaCl, 1 mM EDTA, 5 μM EtBr, pH=7.5). 95 μL of this solution was added to a 96 well plate containing 5 μL of DMSO solutions of compounds. […] Fluorescence was then read on a Gemini microplate reader (Molecular Devices, excitation=545 nm, emission=595 nm).

[2] = system: VRE clinical isolate S234; test: organism not typed; type: cell-based, E. faecalis; conditions: read-out: MIC
[3] = Pharmacokinetic assessment, serum by HPLC; type: in vivo, C57BL/6 mice; conditions: mouse serum
Protocol: FIG. 13. Pharmacokinetic analysis of DNM, DNM-2, and DNM-3. C57/BL6 mice were treated with 50 mg kg^−1 DNM, DNM-2, or DNM-3 via oral gavage. After the indicated time points (15, 30, 60, 120, 240, and 480 min), mice were sacrificed and the serum concentrations of DNM, DNM-2, and DNM-3 was determined by HPLC.
The animal studies (PK, in vivo toxicity and in vivo efficacy) were carried out in strict accordance with the recommendations in the Guide for the Care and Use of Laboratory Animals of the National Institutes of Health. […] In these studies, 10-12 week old female C57BL/6 mice purchased from Charles River were used. DNM, DNM-2, and DNM-3 were formulated as slurries at 8.3 mg mL^−1 in 25% Cremophor RH40/water (v/v). Before beginning the pharmacokinetic assessment, mice were first tested for their ability to tolerate the DNM, DNM-2, and DNM-3 at 50 mg kg^−1 (p.o.). […] At specified time points, mice were sacrificed and blood was collected, centrifuged, and the serum was frozen at −80° C. until analysis. The proteins in a 50 μL aliquot of serum were precipitated by the addition of 50 μL of acetonitrile and the sample was centrifuged to remove the proteins. Serum concentrations of DNM, DNM-2, and DNM-3 were determined by HPLC. PK parameters were determined using GraphPad Prism Version 5.00 for Windows.

[4] = system: VRE clinical isolate S557; test: organism not typed; type: cell-based, E. faecium; conditions: read-out: MIC
[5] = In vivo toxicity assessment, 10 days; parameters: species or system BALB/c mice; conditions: 50 mg kg^−1 oral once-a-day 10 days; in words
Protocol: Toxicity was assessed as previously described^56. Specifically, heparinized whole blood was collected for assessment of total white blood cells, neutrophils, lymphocytes, hematocrit, platelets, creatinine, blood urea, nitrogen, albumin, alanine aminotransferase, alkaline phosphatase, and total bilirubin. Mice were euthanized by overdosing with Ketamine/Xylazine, and heart, lung, kidney, liver, spleen, gastrointestinal tract and brain were collected for histopathology. Tissue samples were fixed 24 hours in 10% neutral buffered formalin, processed, and paraffin embedded, sectioned (5 μm thickness) and stained with hematoxylin and eosin. All slides were systematically evaluated by a single board certified veterinary anatomic pathologist (SL) for evidence of acute or chronic inflammation and toxicity. All lesions were characterized, recorded, and scored for severity (minimal=1, mild=2, moderate=3, and severe=4).

In the case of `Cc1cc(=O)n(C)c2c3c4c(cc12)c(C)cc(=O)n4CO3` [DNM, deoxynybomycin], the MTD (in vivo) is reported as over 50 mg/kg, the “Solubility in pH 7.4 PBS” value (physchem) is reported as 9 μM and the MIC [1] is reported as 1 mg/L (≈ 3.54 µM).

In the case of `CCn1c(=O)cc(C)c2cc3c(C)cc(=O)n4c3c(c21)OC4` [DNM-2], the “concentration without significant DNA intercalation” value (Herring Sperm DNA) is reported as over 30 µM, the MTD (in vivo) is reported as over 50 mg/kg and the MIC [2] is reported as 0.25 mg/L (≈ 0.844 µM). For the same compound, the AUC ([3]; 50 mg kg^−1 oral dose) was 44 µg·h/mL, the “Cmax / peak serum concentration” value ([3]; 50 mg kg^−1 oral dose) was 12.8 µg/mL and the Cmax ([3]; 50 mg kg^−1 oral dose, read-out: Cmax / peak serum concentration) was 42.6 µM. For the same compound, the AUC ([3]; 50 mg kg^−1 oral gavage) was 44 µg·h/mL, the Cmax ([3]; 50 mg kg^−1 oral gavage) was 12.8 µg/mL and the Tmax ([3]; 50 mg kg^−1 oral gavage) was 1.2 h. For the same compound, the t1/2 ([3]; 50 mg kg^−1 oral gavage) was 0.9 h, the “Solubility in pH 7.4 PBS” value (physchem) was 121 μM and the MIC [4] was 0.25 mg/L (≈ 0.844 µM). The “hematological and non-hematological toxicity” value [5] was “No clinically significant evidence for myelosuppression, renal injury, or hepatic toxicity” and the MIC [1] was 2 mg/L (≈ 6.75 µM).
